In patent publication US5925667A, “Pyrrolidine derivative, anti-ulcer drug, and antibacterial drug” (Shiseido Co., Ltd., priority 1997, dated 1999):

Key:
stress ulcer = experiment: WIS: Restraint and Water Immersion Stress-Induced Ulcer Inhibition Test; assay type: in vivo, male Crj:SD or Slc:SD rats; details: rat, 100 mg/kg oral, 7 h water immersion stress; read-out: ulcer formation inhibitory rate (WIS)
Protocol: WIS: Restraint and Water Immersion Stress-Induced Ulcer Inhibition Test
The degree of inhibition of the stress ulcer formation is tested.
Male Crj:SD or Slc:SD rats (6 to 7-week-old) were fasted overnight, but allowed free access to water. Each group has 5 to 8 of these rats. The sample compound was dissolved or suspended in an aqueous solution of 0.3% sodium carboxymethylcellulose or 0.05% Tween 80 and then was orally administered (100 mg/10 ml/kg. To a control group, the vehicle was administered. 10 minutes later, the rats were placed in a stress cage and immersed to the level of xipfoid process in a water bath (21° C.) for 7 hours. At the end of the stress, the rats were sacrificed by inhalation of ether or carbon dioxide. Then, the stomach of each was removed, inflated by injecting 10 ml of 5% formalin neutral buffer solution, and immersed in 1% formalin neutral buffer solution for 30 minutes or more to be fixed. The stomach was incised along the greater curvature and then the length of each erosion in the glandular portion was determined under dissecting microscope. The sum of the length of erosions per stomach was defined as ulcer index (UI).
The effect obtained when 100 mg/kg of the sample compound had been administered was expressed as ulcer formation inhibitory rate (%) as follows:
ulcer formation inhibitory rate (%)=(1-(UI in sample group/UI in control group))×100

[1] = tested on: isolated gastric fundic gland; experiment: CAP: Acid Secretion Inhibition Test In Vitro ([14C]-aminopyrine uptake test); assay type: cell-based, male Japanese White rabbit; details: Oryctolagus cuniculus; final concentration 10^-5 M, histamine 10^-5 M; read-out: acid secretion inhibitory rate (CAP)
Protocol: CAP: Acid Secretion Inhibition Test In Vitro
The acid secretion inhibitory activity in a cell level is studied. It can also be used for studying the mechanism of the effect.
ii-a) Preparation of isolated gastric fundus gland suspension
First, an isolated gastric fundic gland sample was prepared. Namely, a male Japanese White rabbit (2.5 to 3 kg) was anesthetized to death with Nembutal™ and then the abdomen was incised. Immediately thereafter, the stomach was removed and, after its pyloric and cardiac antrum were severed, incised along its greater curvature into two sheets. The gastric contents adhering to the mucosal surface was washed out with ice-cooled PBS (-) and then carefully washed therein. The gastric wall was spread on a cork board with its mucosal surface facing up and the feed and mucus thereon were completely removed with sterile gauze. The mucosa was separated therefrom by a spatula and then collected in ice-cooled PBS (-). After being washed twice with PBS (-), the mucosa was minced into 2-3 mm^3 pieces by scissors. These pieces were further washed twice with a nutrient solution. The nutrient solution comprises 132.4 mM of NaCl, 5.4 mM of KCl, 5 mM of Na2 HPO4.12H2 O, 1 mM of NaH2 PO4.2H2,
1.2 mM of MgSO4, 1 mM of CaCl2, 25 mM of HEPES, 2 mg/ml of glucose, and 1 mg/ml of BSA.
Into 70 ml of the nutrient solution containing 1 mg/ml of collagenase, minced mucosal pieces were dispersed and intensely stirred in a conical flask with a stirrer at 37° C. for 40 to 60 minutes. During this period, 100% O2 was sprayed on the nutrient solution surface and the pH was appropriately measured such that it was immediately adjusted to pH 7.4, when the value was therebelow, with a base. The nutrient solution was added to the reaction solution so as to attain the total amount of about 200 ml. After being filtered through a mesh, the suspension was divisionally introduced into 50 ml centrifuge tubes and left for 15 minutes such that gastric fundic gland was deposited. The supernatant was repeatedly removed by an aspirator, dispersed in the nutrient solution, and then left such that the gastric fundic gland was washed three times. At this time, without using a pipette, the suspension was alternately introduced into two centrifuge tubes so as to effect dispersion. The number of cells was counted under microscope and adjusted to 1.6×10^6 cells/ml.
ii-b) [^14 C]-aminopyrine uptake test.
Then, [^14 C]-aminopyrine uptake test was performed. After an Eppendorf tube was weighed, 10 μl (final concentration: 10^-5 M) of histamine dissolved in the above-mentioned nutrient solution, 10 μl (final concentration: 10^-5 M) of the test compound dissolved in DMSO, and 10 μl (final concentration: 0.05 μCi/ml) of [^14 C]-aminopyrine diluted with the nutrient solution were introduced therein and then 970 μl of the isolated gastric fundic gland suspension prepared above was added thereto. Subsequently, this mixture was shaken at 37° C. for 40 minutes at 125 cycles/minute. After being centrifuged for 30 seconds, 200 μl of its supernatant was collected into a mini-vial, while the rest was removed by an aspirator. The gland pellet was completely dried as the tube with its lid being opened was kept for one night in a drying oven at 80° C. and then the lid was closed and the weight was determined at room temperature. Then 100 μl of 1N KOH was added thereto and the tube with its lid being closed was treated at 60° C. for 1 to 2 hours so as to dissolve the pellet. Then, the contents thereof were transferred to a mini-vial. Into the mini-vial containing the supernatant or gland pellet, 4 ml of Atomlite™ was added and then the radioactivity was measured by a liquid scintillation counter. Here, after the radioactivity of the gland pellet was corrected by using a sample in which 20 mM of NaSCN was added so as to cancel the hydrogen ion concentration gradient, the integration ratio of aminopyrine specifically trapped by the gland pellet was calculated. […]

Slc:ICR mice = tested on: Slc:ICR mice; parameters: species or system male Slc:ICR mice; details: mouse, in vivo
Protocol: AT: Single Dose Toxicity Pretest
Male Slc:ICR mice (5-week-old) were used. Each group has 3 to 5 mice and each mouse was fasted, but allowed free access to water, for 4 to 5 hours from 9 a.m. in the test day. Then, 2,000 mg/10 ml/kg of the sample compound dissolved or suspended in an aqueous solution of 0.5% sodium carboxymethyl cellulose was orally administered thereto. To a control, only the vehicle was administered. […] The body weight was measured before and after the fasting as well as at the same time everyday. The dead animals were immediately subjected to autopsy and their organs were observed by naked eyes. Also, the living animals were sacrificed with ether or carbon dioxide one week after the administration and then their organs were observed by naked eyes.
The toxicity at the single dose of 2,000 mg/kg of the sample compound was expressed as being classified into 5 levels.
5: Mortality rate is 0%; no toxicity is found at all both in behavior and organs.
4: Mortality rate is 0%; while no toxicity is found in organs, slight toxicity is observed in behavior or body weight increase.
3: While there is a dead animal (though not all the animals are dead), no toxicity is found in organs.
2: Regardless of whether there is a dead animal or not, toxicity is found in organs.
1: All the animals are dead.

[2] = MTT: Cell Damaging and Protecting Effect Test; assay type: cell-based, male Japanese White rabbit; details: rabbit, gastric mucosa cells, final concentration 10^-4 M, smaller value is better, read-out: cell damaging rate (MTT)
Text: MTT: Cell Damaging and Protecting Effect Test
It is confirmed that there is no toxicity in cell level. Those having a toxicity in cell level are inappropriate as an anti-ulcer drug.
A male Japanese White rabbit (2.5 to 3 kg) was anesthetized to death by Nembutal™ and, immediately thereafter, its stomach was removed. The greater curvature of the stomach was incised so as to remove the stomach contents therefrom. After the mucosal surface was washed with HBSS (Hanks' Balanced Salt Solution), the stomach in ice-cooled HBSS was transferred to a laboratory. Then, after the pyloric antrum was removed, the gastric corpus mucosa was separated by a spatula and then minced into 2 to 3 mm^3 pieces in BME (Basal Medium Eagle). Thereafer, these pieces were shaken at 120 to 130 cycles/minute for 15 minutes at 37° C. in BME 60 ml containing 280 U/ml of dispase and 30 to 50 U/ml of collagenase. Here, the concentration of collagenase was appropriately changed for each lot in view of the state of cells. The pieces were washed twice with EBSS (Earle's Balanced Salt Solution) containing 1 mM of EDTA and then shaken in MEM (Minimum Essential Medium) containing 1 mM of EDTA at 37° C. for 5 minutes. Subsequently, they were shaken in the dispase and collagenase having the same concentrations as those mentioned above for 15 minutes so as to remove the supernatant and then further shaken at 37° C. for 50 to 60 minutes at 120 to 130 cycles/minute. Then, after being washed twice with HBSS, Ham F12 containing 2% of Ultrocer G™ was used to attain the concentration of 1×10^6 cells/ml. Thus formed suspension was dispensed in each well of a 96-well plate by 200 μl. The plate was incubated in the atmosphere composed of 5% CO2 and 95% air at 37° C. for three days so as to attain a confluent state and then subjected to MTT assay.
The sample compound was dissolved in DMSO so as to attain a concentration of 10^-2 M and then diluted with HBSS containing 2% of Ultrocer G™ so as to attain a final concentration of 10^-4 M. To each group, which 8 wells were used for, 10 μl of MTT reagent was added immediately after 100 μl of the medium in each well was exchanged for same volume of the resulting solution of the sample compound. After being incubated in an atmosphere composed of 5% CO2 and 95% air at 37° C. for 4 hours, thus formed solution was centrifuged and then its supernatant was discarded. Subsequently, 100 μl of 100% ethanol was added to the residue so as to dissolve MTT formazan. Then, the absorbance (OD: 570 to 630) was measured by a microplate reader. This method utilizes a phenomenon in which MTT is changed to MTT formazan only by mitochondria of living cells so as to change color.
The cell damaging or cell protecting effect of the sample compound at the final concentration of 10^-4 M was expressed as cell damaging rate (%) as follows:
cell damaging rate (%)=(1-(absorbance in sample group/absorbance in control group))×100
Accordingly, the smaller value is better in the cell damaging rate.

CCN1CCCC1CNC(=O)c1ccc(OC/C=C(/C)CCC=C(C)C)cc1 (stereo not drawn) [Example 4, 1-ethyl-2-(4-neryloxybenzoylaminomethyl)pyrrolidine]
inhibition in vivo at 100 mg/kg (stress ulcer): 68%
inhibition at 10 µM [1]: 100%
toxicity at single dose (AT), 5 levels (Slc:ICR mice): 5

CCN1CCCC1CNC(=O)c1ccc(OC/C=C(\C)CCC=C(C)C)c(OC)c1 (stereo not drawn) [Example 16, 1-ethyl-2-(4-geranyloxy-3-methoxybenzoylaminomethyl)pyrrolidine]
inhibition in vivo at 100 mg/kg (stress ulcer): 72%
inhibition at 10 µM [1]: 99.8%
toxicity at single dose (AT), 5 levels (Slc:ICR mice): 4

CCN1CCCC1CNC(=O)c1ccc(OCC=C(C)C)cc1 (stereo not drawn) [Example 3, 1-ethyl-2-(4-prenyloxybenzoylaminomethyl)pyrrolidine]
inhibition in vivo at 100 mg/kg (stress ulcer): 86%
inhibition at 10 µM [1]: 61%
cytotoxicity at 4 h, 100 µM [2]: -14%

CCN1CCCC1CNC(=O)c1cc(OCC=C(C)C)cc(OCC=C(C)C)c1 (stereo not drawn) [Example 8, 1-ethyl-2-(3,5-diprenyloxybenzoylaminomethyl)pyrrolidine]
inhibition in vivo at 100 mg/kg (stress ulcer): 81%
inhibition at 10 µM [1]: 100%
toxicity at single dose (AT), 5 levels (Slc:ICR mice): 5

CCN1CCCC1CNC(=O)c1cc(OC)c(OC)c(OCC=C(C)C)c1 (stereo not drawn) [Example 23, 1-ethyl-2-(3,4-dimethoxy-5-prenyloxybenzoylaminomethyl)pyrrolidine]
inhibition in vivo at 100 mg/kg (stress ulcer): 79%
inhibition at 10 µM [1]: 73.1%
cytotoxicity at 4 h, 100 µM [2]: -3%

CCN1CCCC1CNC(=O)c1ccc(OCC=C(C)C)cc1OCC=C(C)C (stereo not drawn) [Example 5, 1-ethyl-2-(2,4-diprenyloxybenzoylaminomethyl)pyrrolidine]
inhibition in vivo at 100 mg/kg (stress ulcer): 70%
inhibition at 10 µM [1]: 100%
cytotoxicity at 4 h, 100 µM [2]: 9%
